In patent US20260327217A1, “THIAZOLE DERIVATIVES AS TAU AGGREGATION INHIBITORS” (WisTa Laboratories Ltd., priority 2022, published 2026):
Structures can show the parent of a compound that is named as a salt. Where two headings read alike, the source gives them in different places.

Experiments:
[1] = target: T1, full-length tau (T40; htau40 isoform) / truncated tau (12-kDa fragment) in 3T6 fibroblast cells (Homo sapiens, UniProt P10636); test: cellular tau aggregation inhibition assay (truncated 12-kDa tau / full-length T40 band ratio on immunoblots); format: cell-based; details: for activity at 2 µM / activity at 20 µM: single concentration test, vs untreated cells, ~1.0 negative, <0.5 positive inhibitor, read-out: Truncated tau/T40 ratio (n = 3); for activity at 20 µM: tested at 20 μM
T1 construct: fibroblast cells (3T6) express full-length tau; PHF-core tau fragment (12-kDa fragment); expressed in transfected cells; host or cells: 3T6 fibroblast cells
Method: A cell-based tau aggregation assay was performed as described previously. The process is described in more detail in WO 02/055720. In essence, fibroblast cells (3T6) express full-length tau (“T40”; the htau40 isoform) under control of an inducible promotor, and low constitutive levels of the PHF-core tau fragment (12-kDa fragment). When T40 expression is induced, it undergoes aggregation-dependent truncation within the cell, N-terminally at approximately amino acid residue 295 and C-terminally at approximately residue 390, thereby producing higher levels of the 12-kDa PHF-core domain fragment. Production of the 12-kDa fragment can be blocked in a dose-dependent manner by tau-aggregation inhibitors. Indeed, the quantitation of inhibitory activity of compounds with respect to proteolytic generation of the 12-kDa fragment within cells can be described entirely in terms of the same parameters which describe inhibition of tau-tau binding in vitro. That is, the extent of proteolytic generation of the 12-kDa fragment within cells is determined entirely by the extent to tau-tau binding through the repeat domain.
[…] MTC was included as a reference tau aggregation inhibitor. For single concentration tests. The ratio of the quantity of both of the protein bands at different concentrations of TAI is measured, to correct for the level of expression of full-length tau and for cell density, particularly at high concentration of TAIs.
The inhibitory ratio (IR) is calculated by the equation:
Where IR^x=inhibitory ratio for compound at x mM; S=signal on immunoblot (mean) for truncated tau (trunc. tau) or full-length tau (full tau) bands for compound at 0 or x mM. A ratio of 1.0 indicates no effect, whereas values decreasing from 1.0 indicate increasing inhibitory action. A curve is generated for different concentrations and the EC50 value for the TAI is defined as the concentration at which the ratio of truncated tau: full-length tau is 50% of that ratio measured in the absence of TAI; this is determined graphically.
The concentration at which there is 50% inhibition of the 12-kDa band relative to T40 (referred to as the EC50 value) was calculated from a graph of the protein band ratios relative to those observed in untreated cells.

[2] = toxicity in cells (lactate dehydrogenase assay, 24 hrs); format: cell-based; details: mouse, 3t6 fibroblasts; concentration at which 50% of cells are killed; 24 hrs exposure; read-out: LD50
Method: Toxicity of the compounds described herein was assessed using the fibroblast cells used in the cell-based assay described above to assess EC50. Toxicity was measured by cell numbers after 24 hrs exposure to the compound using a lactate dehydrogenase assay kit TOX-7 (Sigma Biosciences) according to the manufacturer's instructions after lysis of remaining cells. Alternatively, a kit from Promega UK (CytoTox 96) was used, again according to the manufacturer's instructions. LD50 is determined as the concentration of compound at which 50% of cells are killed.

[3] = both AD and frontotemporal dementia; cited from earlier work
[4] = target: T2, truncated tau (residues 297-390; dGA) / dGAE (residues 297-391), tau-tau binding (Homo sapiens, UniProt P10636); test: in vitro cell-free tau-tau binding assay (B50); details: concentration required to inhibit tau-tau binding by 50%
T2 construct: truncated tau (residues 297-390; dGA); another truncated tau species (residues 297-391; dGAE)
Excerpt: This is described in detail in WO 96/30766 and in [25]. Briefly, a fragment of tau corresponding to the core repeat domain, which has been adsorbed to a solid-phase substrate, is able to capture soluble, full-length tau and bind tau with high affinity. This association confers stability against proteolytic digestion of the aggregated tau molecules. The process is self-propagating and can be blocked selectively by prototype pharmaceutical agents.
More specifically, truncated tau (residues 297-390; dGA) diluted in carbonate buffer (pH 9.6) was bound to the assay plate, and another truncated tau species (residues 297-391; dGAE) was added in the aqueous phase. The aqueous phase binding buffer contained 0.05% Tween-20 and 1% gelatine in phosphate-buffered saline (pH 7.4). Bound dGAE was detected using mAb 423 that recognises a Glu-391 dependent epitope that is absent from the solid-phase dGA.
The concentration of compound required to inhibit the tau-tau binding by 50% is referred to as the B50 value.

[5] = target: T3, dGAE (Homo sapiens, UniProt P10636); test: solution-phase sandwich ELISA of dGAE assembly (scAb epitope occlusion); format: biochemical; details: 100 μM dGAE, 500 μM inhibitor, 24 h assembly
T3 construct: HMT or Compound 9 added
Method: Recombinant dGAE was produced in a bacterial expression system and assembled in the presence of 10 mM DTT by incubation at 37° C. with agitation for 24 h, as described previously. For testing the pharmacological activity, assembly reactions were performed with 100 μM dGAE and 500 μM tau aggregation inhibitor (Compound 9 or HMT) in Protein Lobind tubes (Eppendorf). Compound 9 was dissolved in DMSO (final 0.5%) and HMT in 10 mM phosphate buffer (PB) supplemented with 10 mM DTT. Control tubes with dGAE+DTT in PB and dGAE+DTT in 0.5% DMSO were also set up to allow for comparison of the extent of aggregation. Following a 24 h assembly reaction, the contents from each tube were mixed by pipetting and samples removed for the immunodetection of exposed epitopes using a solution-phase sandwich ELISA.
Ninety-six well Nunc Maxisorp plates were pre-coated with mAb 423 (10 μg/ml), which specifically recognises tau that is C-terminally truncated at Glu391 in the Pronase-resistant PHF core, washed three times with PBS containing 0.1% Tween 20 (PBST) and then blocked with 2% dried milk (Marvel) in PBS. Doubling dilutions of dGAE assembly samples were added from starting concentrations of 10 μg/ml in PBS and incubated for 1 h at 37° C. Bound tau was then detected using scAbs (10 μg/ml) and incubated for 1 h at 37° C. Anti-human C kappa HRP-conjugated secondary antibody was diluted 1:1,000 in 2% dried milk in PBS and incubated for 1 h at 37° C. Pierce 1-Step Ultra TMB-ELISA Substrate Solution was used to develop the reaction which was subsequently stopped with the addition of 1 M H2SO4. Absorbance was measured at 450 nm.

[6] = full assay, concentration at which truncated tau:full-length tau ratio is 50% of that without TAI, mean for replicates, NE = no effect, read-out: EC50

T2 sequence (P10636 614-708): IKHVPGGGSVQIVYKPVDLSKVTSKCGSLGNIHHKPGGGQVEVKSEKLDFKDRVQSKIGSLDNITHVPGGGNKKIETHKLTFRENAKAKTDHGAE
T3 sequence (P10636 614-708): as above
T1 sequence (P10636 1-441 isoform P10636-8): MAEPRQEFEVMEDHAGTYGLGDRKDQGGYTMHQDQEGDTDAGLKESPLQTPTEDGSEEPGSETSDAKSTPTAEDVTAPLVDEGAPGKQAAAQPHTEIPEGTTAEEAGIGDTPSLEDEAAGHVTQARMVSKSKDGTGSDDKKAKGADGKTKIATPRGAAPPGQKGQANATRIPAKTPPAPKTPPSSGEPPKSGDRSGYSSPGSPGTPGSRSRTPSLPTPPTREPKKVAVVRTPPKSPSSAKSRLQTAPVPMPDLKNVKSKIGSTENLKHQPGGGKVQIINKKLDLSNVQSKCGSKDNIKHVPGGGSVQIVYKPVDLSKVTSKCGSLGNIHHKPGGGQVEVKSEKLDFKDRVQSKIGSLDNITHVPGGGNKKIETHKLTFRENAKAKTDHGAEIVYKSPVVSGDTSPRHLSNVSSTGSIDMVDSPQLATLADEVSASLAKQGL

SMILES | activity at 2 µM ([1]; >2.0 aggregation enhanced) | CC50 at 24 h [2] | also measured
Cn1cccc1CNC(=O)c1csc(NS(=O)(=O)CCO)n1 [Compound 11] | 91.7 ± 18.8% | 222 ± 35 µM | –
O=C(NCc1ccc[nH]1)c1csc(NS(=O)(=O)CF)n1 [Compound 15] | 120 ± 25.7% | 221 ± 35 µM | –
CN(C)c1ccc2c(c1)Sc1cc(N(C)C)ccc1N2 [HMTM, Hydromethylthionine mesylate] | – | – | pharmacological activity on clinical decline and brain atrophy [3]: exposure-dependent pharmacological activity on clinical decline and brain atrophy
CN(c1nc(C(=O)NCCC(C)(C)C)cs1)S(C)(=O)=O [Compound 10] | 49.6 ± 9.6% | 191 ± 26 µM | EC50 [1, 6]: 29 µM
O=C(NCc1nc2cc(Cl)ccc2[nH]1)c1csc(NS(=O)(=O)c2c[nH]c3ccccc23)n1 [Compound 25] | – | 202 ± 9.3 µM | activity at 20 µM [1]: 91.1 ± 10%; IC50 [4]: 612 µM
Cn1cccc1CNC(=O)c1csc(NS(C)(=O)=O)n1 [Compound 2] | 86.4 ± 5.9% | 253 ± 40 µM | –
O=C(NCc1nc2ccc(Cl)cc2[nH]1)c1csc(NS(=O)(=O)CF)n1 [Compound 18] | 14.1 ± 3.9% | 225 ± 38 µM | –
CS(=O)(=O)Nc1nc(C(=O)NCc2cc(-c3ccccc3)[nH]n2)cs1 [Compound 5] | 72.7 ± 11.3% | 252 ± 23 µM | –
CN(c1nc(C(=O)NCc2cc(-c3ccccc3)[nH]n2)cs1)S(C)(=O)=O [Compound 9] | – | 80.1 ± 45 µM | EC50 [1, 6]: 4.82 µM; activity in cell-based aggregation assay (in words) ([1]; qualitative statement): lower potency; activity at 2 µM ([1]; tested at 2 μM): 26.6 ± 6.1%; EC50 ([1]; single experiment, FIG. 2, read-out: EC50 (50% inhibition of the lower 12-kDa band)): 3.65 µM; IC50 [4]: > 500 µM; assembly-dependent occlusion of epitopes ([5]; CA4, CE2, 1G2 and 1D12 epitopes): Epitope exposure was less complete; 1G2 epitope availability / immunoreactivity ([5]; scAb 1G2): comparable to HMT; exposure of the CA4 and 1D12 epitopes ([5]; scAbs CA4 and 1D12): only partial exposure
O=C(NCc1cc(-c2ccccc2)[nH]n1)c1csc(NS(=O)(=O)CCO)n1 [Compound 13] | – | 197 ± 8.1 µM | activity at 20 µM [1]: 112 ± 16.2%
O=C(NCc1cc(-c2ccccc2)[nH]n1)c1csc(NS(=O)(=O)c2c[nH]c3ccccc23)n1 [Compound 26] | – | 188 ± 11 µM | activity at 20 µM [1]: 132 ± 8.4%; IC50 [4]: 616 µM
CNS(=O)(=O)Nc1nc(C(=O)NCc2cc3ccccc3[nH]2)cs1 [Compound 21] | 217 ± 85.6% | 227 ± 30 µM | –
CNS(=O)(=O)Nc1nc(C(=O)NCCC(C)(C)C)cs1 [Compound 24] | 349 ± 106% | 235 ± 44 µM | –
O=C(NCc1nc2cc(Cl)ccc2[nH]1)c1csc(NS(=O)(=O)CCO)n1 [Compound 12] | – | 197 ± 11.9 µM | activity at 20 µM [1]: 101 ± 8.8%
CS(=O)(=O)Nc1nc(C(=O)NCc2nc3cc(Cl)ccc3[nH]2)cs1 [Compound 4] | 480 ± 114% | 264 ± 27 µM | –
O=C(NCc1cc2ccccc2[nH]1)c1csc(NS(=O)(=O)CF)n1 [Compound 17] | – | 228 ± 40 µM | activity at 2 µM ([1]; tested at 2 μM): 53.2 ± 15%
CN(c1nc(C(=O)NCc2cccn2C)cs1)S(C)(=O)=O [Compound 8] | 7.8 ± 1.4% | 204 ± 39 µM | –
CNS(=O)(=O)Nc1nc(C(=O)NCc2cc(-c3ccccc3)[nH]n2)cs1 [Compound 23] | 98.5 ± 10.1% | 226 ± 40 µM | –
CS(=O)(=O)Nc1nc(C(=O)NCc2cc3ccccc3[nH]2)cs1 [Compound 3] | 228 ± 44.9% | 212 ± 14 µM | –
CN(c1nc(C(=O)NCc2ccc[nH]2)cs1)S(C)(=O)=O [Compound 7] | 44.4 ± 20.8% | 216 ± 46 µM | –
O=C(NCc1cc(-c2ccccc2)[nH]n1)c1csc(NS(=O)(=O)CF)n1 [Compound 19] | 197 ± 94.6% | 231 ± 38 µM | –
CS(=O)(=O)Nc1nc(C(=O)NCc2ccc[nH]2)cs1 [Compound 1] | 501 ± 40.4% | 247 ± 16 µM | –
CC(C)(C)CCNC(=O)c1csc(NS(=O)(=O)CF)n1 [Compound 20] | 80.3 ± 42.4% | 186 ± 13 µM | –
CC(C)(C)CCNC(=O)c1csc(NS(C)(=O)=O)n1 [Compound 6] | 88.8 ± 5.7% | 217 ± 2.7 µM | –
CC(C)(C)CCNC(=O)c1csc(NS(=O)(=O)CCO)n1 [Compound 14] | – | 263 ± 39 µM | EC50 [1, 6]: 3.7 µM; activity at 2 µM ([1]; tested at 2 μM): 38.1 ± 14.6%
Cn1cccc1CNC(=O)c1csc(NS(=O)(=O)CF)n1 [Compound 16] | – | 236 ± 25 µM | activity at 20 µM [1]: 62.8 ± 5.1%
CNS(=O)(=O)Nc1nc(C(=O)NCc2nc3cc(Cl)ccc3[nH]2)cs1 [Compound 22] | 136 ± 59.1% | 228 ± 36 µM | –
CN(C)c1ccc2nc3ccc(N(C)C)cc3[s+]c2c1.[Cl-] [MT, reference compound] | – | – | tau aggregation level, % of that measured in its absence ([1]; MT at 1 μM): 9.6%
